The source of these data is patent US10934315B2, “Process for preparing bortezomib, intermediates, and crystalline forms thereof” (PHARMACORE BIOTECH CO., LTD., priority 2018, dated 2021).

Molecules are shown by their SMILES.

The series is described as follows: Stability test of crystalline form D of bortezomib in a sealed state at 0-10° C. The note with it: for Purity (%): HPLC purity. It is filed as physicochemical. As for the experimental part:
The crystalline form of bortezomib prepared in Example 2 was subjected to a stability test in a sealed state at a temperature of 0-10° C. for 3.5 months.

On to `CC(C)C[C@H](NC(=O)[C@H](Cc1ccccc1)NC(=O)c1cnccn1)B(O)O` [Form D of Formula V, [(1R)-3-methyl-1-[[(2S)-1-oxo-3-phenyl-2-[(pyrazinylcarbonyl)amino]propyl]amino]butyl] boronic acid], for which the “(S, S) and (R, R) diastereomer (%)” value is, setting by setting: (1 month) 0.046%; (1 week) 0.068%; (2 month) 0.039%; (2 week) 0.042%; (3.5 month) 0.048%. Moreover, for the setting “3.5 months”, the “Stability (HPLC purity and crystalline form)” value was “maintained in a stable state without any change in HPLC purity and crystalline form”. The “Purity (%)” value runs as follows: (1 month) 99.80%; (1 week) 99.61%; (2 month) 99.74%; (2 week) 99.87%; (3.5 month) 99.69%.
